Assay results: US9655849B2, “Solid particulate compositions comprising coenzyme Q10” (Particle Dynamics International, LLC, priority 2011, dated 2017)
Values joined by “and” are separate entries in the source; they are usually repeats but may differ in a detail not shown here. Identical values can stand only once.

Assay: CoQ10 Starting Material Particle Size Analysis, laser diffraction, dry dispersion
Type: physicochemical
Method: This example details the results of particle size analysis for a commercially available CoQ10 starting material. Dry samples of KANEKA Q10 powder were analyzed using laser diffraction to obtain a measurement of particle size characteristics.
Particle size analysis of the CoQ10 starting material was conducted using a dry dispersion method. A […] HELOS equipped with a RODOS dispersion module and a R3 lens was employed for the analysis. Prior to the analysis the sample was evaluated using optical microscopy. Particles were well dispersed and ranged in size from approximately 5 microns to approximately 90 microns.

[1] = dry powder, Avg. of analyses A-F
[2] = dry powder, single analyses A-F

COC1=C(OC)C(=O)C(C/C=C(\C)CC/C=C(\C)CC/C=C(\C)CC/C=C(\C)CC/C=C(\C)CC/C=C(\C)CC/C=C(\C)CC/C=C(\C)CC/C=C(\C)CCC=C(C)C)=C(C)C1=O [KANEKA Q10]
x10, Particulate Size Distribution (Number Basis) [1]: 0.55 μm | x10, Particulate Size Distribution (Volume Basis) [1]: 4.76 μm | x50, Particulate Size Distribution (Number Basis) [1]: 0.77 μm | x50, Particulate Size Distribution (Volume Basis) [1]: 15.16 μm | x90, Particulate Size Distribution (Number Basis) [1]: 1.30 μm | x90, Particulate Size Distribution (Volume Basis) [1]: 40.52 μm | x95, Particulate Size Distribution (Number Basis) [1]: 1.78 μm | x95, Particulate Size Distribution (Volume Basis) [1]: 50.83 μm | x99, Particulate Size Distribution (Number Basis) [1]: 5.11 μm | x99, Particulate Size Distribution (Volume Basis) [1]: 71.32 μm | x10, Particulate Size Distribution (Number Basis) [2]: 0.55 μm | x10, Particulate Size Distribution (Volume Basis) [2]: 4.99 μm and 5.21 μm and 4.63 μm and 4.16 μm and 4.77 μm and 4.80 μm | x50, Particulate Size Distribution (Volume Basis) [2]: 15.36 μm and 15.89 μm and 15.04 μm and 14.37 μm and 15.15 μm | x90, Particulate Size Distribution (Volume Basis) [2]: 40.65 μm and 41.41 μm and 40.36 μm and 39.46 μm and 40.75 μm and 40.46 μm | x95, Particulate Size Distribution (Number Basis) [2]: 1.79 μm and 1.74 μm and 1.77 μm and 1.80 μm and 1.78 μm | x95, Particulate Size Distribution (Volume Basis) [2]: 50.84 μm and 51.76 μm and 50.62 μm and 49.96 μm and 51.11 μm and 50.68 μm | x99, Particulate Size Distribution (Number Basis) [2]: 5.30 μm and 5.13 μm and 4.98 μm and 4.93 μm and 5.14 μm and 5.20 μm | x99, Particulate Size Distribution (Volume Basis) [2]: 71.36 μm and 71.75 μm and 71.16 μm and 70.79 μm and 71.66 μm and 71.20 μm | portion of the total volume attributable to particulates greater than 15 μm in diameter (volume basis): more than 50%
